# Source: patent publication US12161752B2, “Compositions and methods for the treatment of anterior blepharitis and posterior blepharitis” (priority 2019, dated 2024)
# How the values were obtained:
# [1] = Clinic based application of topical Ivermectin for the treatment of inflammatory blepharitis; type: in vivo
# Protocol: In another embodiment, the pharmaceutical composition is administered periodically. In an embodiment, the pharmaceutical composition is applied daily for 3 days and the treatment is repeated for 3 days again after 2 weeks. In most cases this is sufficient for a significant therapeutic effect. The treatment using this frequency can be repeated again if the condition recurs but this is necessary only in a relatively small number of cases. The intermittent dosage of the Ivermectin provides the benefit of a lower amount of Ivermectin use and thereby lowers the possibility of adverse effects.
# In another embodiment, a subject with anterior and posterior blepharitis is identified and the existing symptoms and signs noted. The pharmaceutical composition is applied by the practitioner using for example, slit lamp magnification to accurately identify the areas on the eyelid margin where the pharmaceutical composition is to be applied. A topical anaesthetic drop is applied in the lower conjunctival sac of the eye 5 to 10 minutes prior. Temporary anaesthetization will attenuate the lacrimal reflex thereby minimizing the production of tear fluid during the application process.
# The pharmaceutical composition is applied as a film precisely along the length of the lid margin with the applicator just covering the openings of the Meibomian glands but taking care as to not further extend the composition into the mucosal surface. The pharmaceutical composition is extended proximally to cover the lash roots and the skin area in between. The lid is held reflected away from the eyeball until the pharmaceutical composition sets and dries in place. The pharmaceutical composition takes the form of an adhesive film or coating on the lid margin. This procedure is repeated for all the 4 eyelid margins. The administration of the pharmaceutical composition results in enhanced meibum production.
# A clinic based application of topical Ivermectin for the treatment of inflammatory blepharitis has been successful; both for cases where Demodex species were not isolated which constituted the majority of cases of Blepharitis treated, and the smaller number of cases where Demodex species were isolated. Most of these were cases with longstanding disease which had been unresponsive to a wide range of currently accepted treatment modalities. More than 95% had full relief of symptoms and a remarkable reduction in signs of inflammation of the lid margins. 87% of the cases required only 1 treatment cycle for marked improvement or complete remission of symptoms.
# [2] = oral, cited from earlier work
substance,measurement,setting,value
"mixture containing 5-O-demethyl-22,23-dihydroavermectin A1a and 5-O-demethyl-25-de(1-methylpropyl)-25-(1-methylethyl)-22,23 dihydroavermectin A1a [Ivermectin]",cases that required only 1 treatment cycle for marked improvement or complete remission of symptoms,[1]; topical application to lid margins,87%
same,cases with full relief of symptoms and a remarkable reduction in signs of inflammation of the lid margins,"[1]; topical application to lid margins, cases with and without Demodex isolated, mostly longstanding disease unresponsive to accepted treatments",More than 95%
same,Meibomian gland orifices and secretions after treatment,"[1]; topical application, a significant number of cases",re-opening of previously closed Meibomian gland orifices
same,overall outcome of treatment of inflammatory blepharitis,"[1]; topical application, cases with and without Demodex species isolated",successful
same,dry eye symptoms after treatment,"[1]; topical application, majority of the cases where dry eye symptoms were present",remarkable improvement
same,adverse effect at high doses,[2]; high doses,paralysis
same,safety profile,[2],good safety profile
